# Data: patent publication US20240376085A1 (Janssen Pharmaceutica NV, priority 2021, published 2024)
# pIC50: −log10 of the molar value.
# Assays:
# [1] = test system: IL-17A-induced G-CSF production in human normal keratinocyte (NHK); assay: NHK assay: IL-17A-induced G-CSF production in normal human keratinocytes; assay type: cell-based; details: Homo sapiens, Keratinocyte, 24 h, IL-17A 5 ng/mL, average if tested more than once
# Outline: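 IC50 derives from G-CSF in supernatants, quantified by HTRF from a standard curve, with CellTiter-Glo viability compared to DMSO control. Before a 24 h, 37°C culture of normal human keratinocytes at 3000–4000 cells/well, compound dilutions were preincubated 1 h at rt with human IL-17A (5 ng/mL final), with 0.2% DMSO and 5% FBS.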
# IL-17A : IL-17RA binding = target: T1, IL-17A : IL-17RA binding (Homo sapiens, UniProt Q16552, K93Q); assay: IL-17A(FLAG-tagged):IL-17RA(His-tagged) binding disruption Eu-HTRF assay, Protocol 1; details: FLAG-IL-17A 2.5 nM at 2x final concentration; average if tested more than once
# T1 construct: Name: IL-17A-Flag
# T1 sequence (Q16552 with tags, fused parts or gaps K93Q): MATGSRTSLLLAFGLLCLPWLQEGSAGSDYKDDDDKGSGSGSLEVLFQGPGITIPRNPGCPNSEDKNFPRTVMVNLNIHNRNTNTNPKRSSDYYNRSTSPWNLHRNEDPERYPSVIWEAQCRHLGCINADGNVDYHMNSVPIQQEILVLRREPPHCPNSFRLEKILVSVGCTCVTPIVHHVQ
# Outline: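 IC50 came from a one-site competition fit of the acceptor/donor (665/620 nm) HTRF ratio. His-tagged IL-17RA, Eu-anti-FLAG and D2-anti-His were added after a 1 h rt compound preincubation with FLAG-tagged IL-17A dimer in PBS/0.01% Triton X-100, followed by 2 h at rt before reading.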
structure (smiles),measurement,setting,value
"C[C@@H](NC(=O)CCC(F)(F)F)c1ccc2[nH]c([C@@H](NC(=O)c3cnn(CCOC(F)F)n3)C3CCC(F)(F)CC3)nc2c1 [Example 33, N—[(S)-(4,4-Difluorocyclohexyl)-[6-[(1R)-1-(4,4,4-trifluorobutanoylamino)ethyl]-1H-benzimidazol-2-yl]methyl]-2-[2-(difluoromethoxy)ethyl]triazole-4-carboxamide]",pIC50,[1],< 7.00
same,pIC50,IL-17A : IL-17RA binding,< 7.00
"C[C@@H](NC(=O)CCC(F)(F)F)c1ccc2[nH]c([C@@H](NC(=O)c3cnnn3CCOC(F)F)C3CCC(F)(F)CC3)nc2c1 [Example 34, N—[(S)-(4,4-Difluorocyclohexyl)-[6-[(1R)-1-(4,4,4-trifluorobutanoylamino)ethyl]-1H-benzimidazol-2-yl]methyl]-3-[2-(difluoromethoxy)ethyl]triazole-4-carboxamide]",pIC50,[1],7.00 to 7.30
same,pIC50,IL-17A : IL-17RA binding,< 7.00
"C[C@@H](NC(=O)CCC(F)(F)F)c1ccc2[nH]c([C@@H](NC(=O)c3cnn(CCOC(F)(F)F)n3)C3CCC(F)(F)CC3)nc2c1 [Example 35, N—[(S)-(4,4-Difluorocyclohexyl)-[6-[(1R)-1-(4,4,4-trifluorobutanoylamino)ethyl]-1H-benzimidazol-2-yl]methyl]-2-[2-(trifluoromethoxy)ethyl]triazole-4-carboxamide]",pIC50,[1],< 7.00
same,pIC50,IL-17A : IL-17RA binding,< 7.00
"C[C@@H](NC(=O)CCC(F)(F)F)c1ccc2[nH]c([C@@H](NC(=O)c3cnnn3CCOC(F)(F)F)C3CCC(F)(F)CC3)nc2c1 [Example 36, N—[(S)-(4,4-Difluorocyclohexyl)-[6-[(1R)-1-(4,4,4-trifluorobutanoylamino)ethyl]-1H-benzimidazol-2-yl]methyl]-3-[2-(trifluoromethoxy)ethyl]triazole-4-carboxamide]",pIC50,[1],7.00 to 7.30
same,pIC50,IL-17A : IL-17RA binding,< 7.00
"C[C@@H](NC(=O)CCC(F)(F)F)c1ccc2[nH]c([C@@H](NC(=O)c3cnn(CC(F)F)n3)C3CCC(F)(F)CC3)nc2c1 [Example 37, N—[(S)-(4,4-Difluorocyclohexyl)-[6-[(1R)-1-(4,4,4-trifluorobutanoylamino)ethyl]-1H-benzimidazol-2-yl]methyl]-2-(2,2-difluoroethyl)triazole-4-carboxamide]",pIC50,[1],< 7.00
same,pIC50,IL-17A : IL-17RA binding,< 7.00
"C[C@@H](NC(=O)CCC(F)(F)F)c1ccc2[nH]c([C@@H](NC(=O)c3cnnn3CC(F)F)C3CCC(F)(F)CC3)nc2c1 [Example 38, N—[(S)-(4,4-Difluorocyclohexyl)-[6-[(1R)-1-(4,4,4-trifluorobutanoylamino)ethyl]-1H-benzimidazol-2-yl]methyl]-3-(2,2-difluoroethyl)triazole-4-carboxamide]",pIC50,[1],< 7.00
same,pIC50,IL-17A : IL-17RA binding,< 7.00
"CC(C)n1cnc(C(=O)N[C@H](c2nc3cc([C@@H](C)NC(=O)CCC(F)(F)F)ccc3[nH]2)C2CCC(F)(F)CC2)n1 [Example 39, N—[(S)-(4,4-Difluorocyclohexyl)-[6-[(1R)-1-(4,4,4-trifluorobutanoylamino)ethyl]-1H-benzimidazol-2-yl]methyl]-1-isopropyl-1,2,4-triazole-3-carboxamide]",pIC50,[1],< 7.00
same,pIC50,IL-17A : IL-17RA binding,< 7.00
"C[C@@H](NC(=O)CCC(F)(F)F)c1ccc2[nH]c([C@@H](NC(=O)c3ncn(CCC(F)F)n3)C3CCC(F)(F)CC3)nc2c1 [Example 40, N—[(S)-(4,4-Difluorocyclohexyl)-[6-[(1R)-1-(4,4,4-trifluorobutanoylamino)ethyl]-1H-benzimidazol-2-yl]methyl]-1-(3,3-difluoropropyl)-1,2,4-triazole-3-carboxamide]",pIC50,[1],< 7.00
same,pIC50,IL-17A : IL-17RA binding,< 7.00
"C[C@@H](NC(=O)CCC(F)(F)F)c1ccc2[nH]c([C@@H](NC(=O)c3ncnn3CCC(F)F)C3CCC(F)(F)CC3)nc2c1 [Example 41, N—[(S)-(4,4-Difluorocyclohexyl)-[6-[(1R)-1-(4,4,4-trifluorobutanoylamino)ethyl]-1H-benzimidazol-2-yl]methyl]-2-(3,3-difluoropropyl)-1,2,4-triazole-3-carboxamide]",pIC50,[1],< 7.00
same,pIC50,IL-17A : IL-17RA binding,< 7.00
"C[C@@H](NC(=O)CCC(F)(F)F)c1ccc2nc([C@@H](NC(=O)c3cnn(C)c3C(F)(F)F)C3CCC(F)(F)CC3)[nH]c2c1 [Example 58, N—((S)-(4,4-Difluorocyclohexyl)(6-((R)-1-(4,4,4-trifluorobutanamido)ethyl)-1H-benzo[d]imidazol-2-yl)methyl)-1-methyl-5-(trifluoromethyl)-1H-pyrazole-4-carboxamide]",pIC50,[1],< 7.00
same,pIC50,IL-17A : IL-17RA binding,< 7.00
"C[C@@H](NC(=O)CCC(F)(F)F)c1ccc2nc([C@@H](NC(=O)c3cnn(C)c3C(F)F)C3CCC(F)(F)CC3)[nH]c2c1 [Example 59, N—((S)-(4,4-Difluorocyclohexyl)(6-((R)-1-(4,4,4-trifluorobutanamido)ethyl)-1H-benzo[d]imidazol-2-yl)methyl)-5-(difluoromethyl)-1-methyl-1H-pyrazole-4-carboxamide]",pIC50,[1],< 7.00
same,pIC50,IL-17A : IL-17RA binding,< 7.00
"C[C@@H](NC(=O)CCC(F)(F)F)c1ccc2nc([C@@H](NC(=O)c3cnnn3C3CC3)C3CCC(F)(F)CC3)[nH]c2c1 [Example 60, 1-Cyclopropyl-N—((S)-(4,4-difluorocyclohexyl)(6-((R)-1-(4,4,4-trifluorobutanamido)ethyl)-1H-benzo[d]imidazol-2-yl)methyl)-1H-1,2,3-triazole-5-carboxamide]",pIC50,[1],< 7.00
same,pIC50,IL-17A : IL-17RA binding,< 7.00
"C[C@@H](NC(=O)CCC(F)(F)F)c1ccc2nc([C@@H](NC(=O)c3cnn(CC4CC4)c3)C3CCC(F)(F)CC3)[nH]c2c1 [Example 61, 1-(Cyclopropylmethyl)-N—((S)-(4,4-difluorocyclohexyl)(6-((R)-1-(4,4,4-trifluorobutanamido)ethyl)-1H-benzo[d]imidazol-2-yl)methyl)-1H-pyrazole-4-carboxamide]",pIC50,[1],< 7.00
same,pIC50,IL-17A : IL-17RA binding,< 7.00
"C[C@@H](NC(=O)CCC(F)(F)F)c1ccc2nc([C@@H](NC(=O)c3cnn(CC4CCC4)n3)C3CCC(F)(F)CC3)[nH]c2c1 [Example 62, 2-(Cyclobutylmethyl)-N—((S)-(4,4-difluorocyclohexyl)(6-((R)-1-(4,4,4-trifluorobutanamido)ethyl)-1H-benzo[d]imidazol-2-yl)methyl)-2H-1,2,3-triazole-4-carboxamide]",pIC50,[1],< 7.00
same,pIC50,IL-17A : IL-17RA binding,< 7.00
"C[C@@H](NC(=O)CCC(F)(F)F)c1ccc2nc([C@@H](NC(=O)c3cnnn3CC3CCC3)C3CCC(F)(F)CC3)[nH]c2c1 [Example 63, 1-(Cyclobutylmethyl)-N—((S)-(4,4-difluorocyclohexyl)(6-((R)-1-(4,4,4-trifluorobutanamido)ethyl)-1H-benzo[d]imidazol-2-yl)methyl)-1H-1,2,3-triazole-5-carboxamide]",pIC50,[1],7.00 to 7.30
same,pIC50,IL-17A : IL-17RA binding,7.00 to 7.30
"C[C@@H](NC(=O)CCC(F)(F)F)c1ccc2nc([C@@H](NC(=O)c3cnn(CC4CC(F)(F)C4)n3)C3CCC(F)(F)CC3)[nH]c2c1 [Example 64, 2-((3,3-Difluorocyclobutyl)methyl)-N—((S)-(4,4-difluorocyclohexyl)(6-((R)-1-(4,4,4-trifluorobutanamido)ethyl)-1H-benzo[d]imidazol-2-yl)methyl)-2H-1,2,3-triazole-4-carboxamide]",pIC50,[1],< 7.00
same,pIC50,IL-17A : IL-17RA binding,< 7.00
"C[C@@H](NC(=O)CCC(F)(F)F)c1ccc2nc([C@@H](NC(=O)c3cn(CC4CC(F)(F)C4)nn3)C3CCC(F)(F)CC3)[nH]c2c1 [Example 65, 1-((3,3-Difluorocyclobutyl)methyl)-N—((S)-(4,4-difluorocyclohexyl)(6-((R)-1-(4,4,4-trifluorobutanamido)ethyl)-1H-benzo[d]imidazol-2-yl)methyl)-1H-1,2,3-triazole-4-carboxamide]",pIC50,[1],< 7.00
same,pIC50,IL-17A : IL-17RA binding,< 7.00
"C[C@@H](NC(=O)CCC(F)(F)F)c1ccc2nc([C@@H](NC(=O)c3cnnn3CC3CC(F)(F)C3)C3CCC(F)(F)CC3)[nH]c2c1 [Example 66, 1-((3,3-Difluorocyclobutyl)methyl)-N—((S)-(4,4-difluorocyclohexyl)(6-((R)-1-(4,4,4-trifluorobutanamido)ethyl)-1H-benzo[d]imidazol-2-yl)methyl)-1H-1,2,3-triazole-5-carboxamide]",pIC50,[1],7.00 to 7.30
same,pIC50,IL-17A : IL-17RA binding,< 7.00
"C[C@@H](NC(=O)CCC(F)(F)F)c1ccc2nc([C@@H](NC(=O)c3cnn(CCC(C)(C)C)n3)C3CCC(F)(F)CC3)[nH]c2c1 [Example 67, N—((S)-(4,4-Difluorocyclohexyl)(6-((R)-1-(4,4,4-trifluorobutanamido)ethyl)-1H-benzo[d]imidazol-2-yl)methyl)-2-(3,3-dimethylbutyl)-2H-1,2,3-triazole-4-carboxamide]",pIC50,[1],< 7.00
same,pIC50,IL-17A : IL-17RA binding,< 7.00
"C[C@@H](NC(=O)CCC(F)(F)F)c1ccc2nc([C@@H](NC(=O)c3cnnn3CCC(C)(C)C)C3CCC(F)(F)CC3)[nH]c2c1 [Example 68, N—((S)-(4,4-Difluorocyclohexyl)(6-((R)-1-(4,4,4-trifluorobutanamido)ethyl)-1H-benzo[d]imidazol-2-yl)methyl)-1-(3,3-dimethylbutyl)-1H-1,2,3-triazole-5-carboxamide]",pIC50,[1],< 7.00
same,pIC50,IL-17A : IL-17RA binding,< 7.00
"C[C@@H](NC(=O)CCC(F)(F)F)c1ccc2nc([C@@H](NC(=O)c3cnn(CCC(F)F)n3)C3CCC(F)(F)CC3)[nH]c2c1 [Example 73, N—((S)-(4,4-Difluorocyclohexyl)(6-((R)-1-(4,4,4-trifluorobutanamido)ethyl)-1H-benzo[d]imidazol-2-yl)methyl)-2-(3,3-difluoropropyl)-2H-1,2,3-triazole-4-carboxamide]",pIC50,[1],< 7.00
same,pIC50,IL-17A : IL-17RA binding,< 7.00
